Literature values as cited in article PMC4474874, “Effect of JAK Inhibitors on Release of CXCL9, CXCL10 and CXCL11 from Human Airway Epithelial Cells” (PLoS ONE, 2015).
Where two headings read alike, the source gives them in different places.

Columns and labels:
[1] = tested on: MAP4K4; set-up: method as in Coe et al., 25; conditions: ATP at the Km; ref Coe et al., 25; cited from earlier work
[2] = tested on: JAK3; set-up: method as in Coe et al., 25; conditions: ref Coe et al., 25, cited from earlier work
[3] = tested on: MST4; set-up: method as in Coe et al., 25; conditions: ATP at the Km; ref Coe et al., 25; cited from earlier work
[4] = tested on: MLK1; set-up: method as in Coe et al., 25; conditions: ATP at the Km; ref Coe et al., 25; cited from earlier work
[5] = target: Protein kinase C β2; conditions: read-out: IC50 Protein kinase C β2 Km; ATP at the Km; ref Coe et al., 25; cited from earlier work
[6] = tested on: TrkA; set-up: method as in Coe et al., 25; conditions: ATP at the Km; ref Coe et al., 25; cited from earlier work
[7] = tested on: TAOK2; set-up: method as in Coe et al., 25; conditions: ATP at the Km; ref Coe et al., 25; cited from earlier work
[8] = tested on: JAK1; set-up: method as in Coe et al., 25; conditions: ref Coe et al., 25, cited from earlier work
[9] = tested on: JAK2; set-up: method as in Coe et al., 25; conditions: ref Coe et al., 25, cited from earlier work
[10] = tested on: GSK3β; set-up: method as in Coe et al., 25; conditions: ATP at the Km; ref Coe et al., 25; cited from earlier work
[11] = tested on: PKA; set-up: method as in PMID 18094329; conditions: at concentrations >5μM; cited from earlier work
[12] = tested on: TrkA; set-up: method as in PMID 18094329; conditions: inactive or IC50 >30μM; read-out: IC50 against TrkA; cited from earlier work
[13] = tested on: IKKb; set-up: method as in PMID 18094329; conditions: inactive or IC50 >30μM; read-out: IC50 against IKKb; cited from earlier work
[14] = tested on: ~30 other kinase pathways; set-up: method as in PMID 18094329; conditions: including AKT, GSK3β, IKKβ, IKKi, MAPK1, MAPKAP-K2, MASK, MET, and ROCK1; cited from earlier work
[15] = tested on: chronic lymphocytic leukaemia cells; set-up: method as in PMID 20716767; conditions: cited from earlier work
[16] = tested on: JAK/JAK3; set-up: method as in PMID 18094329; conditions: cellular assay; cited from earlier work
[17] = tested on: ROCK1; set-up: method as in PMID 18094329; conditions: inactive or IC50 >30μM; read-out: IC50 against ROCK1; cited from earlier work
[18] = tested on: GSK3b; set-up: method as in PMID 18094329; conditions: inactive or IC50 >30μM; read-out: IC50 against GSK3b; cited from earlier work
[19] = tested on: AuroraA; set-up: method as in PMID 18094329; conditions: inactive or IC50 >30μM; read-out: IC50 against AuroraA; cited from earlier work
[20] = tested on: cdk6; set-up: method as in PMID 18094329; conditions: inactive or IC50 >30μM; read-out: IC50 against cdk6; cited from earlier work
[21] = tested on: PAK4; set-up: method as in PMID 18094329; conditions: inactive or IC50 >30μM; read-out: IC50 against PAK4; cited from earlier work
[22] = tested on: INSR; set-up: method as in PMID 18094329; conditions: inactive or IC50 >30μM; read-out: IC50 against INSR; cited from earlier work
[23] = tested on: TaoK3; set-up: method as in PMID 18094329; conditions: inactive or IC50 >30μM; read-out: IC50 against TaoK3; cited from earlier work
[24] = tested on: IKKi; set-up: method as in PMID 18094329; conditions: inactive or IC50 >30μM; read-out: IC50 against IKKi; cited from earlier work
[25] = tested on: FGFR1; set-up: method as in PMID 18094329; conditions: inactive or IC50 >30μM; read-out: IC50 against FGFR1; cited from earlier work
[26] = tested on: PDK1; set-up: method as in PMID 18094329; conditions: inactive or IC50 >30μM; read-out: IC50 against PDK1; cited from earlier work
[27] = tested on: MASK; set-up: method as in PMID 18094329; conditions: inactive or IC50 >30μM; read-out: IC50 against MASK; cited from earlier work
[28] = tested on: PKCb; set-up: method as in PMID 18094329; conditions: inactive or IC50 >30μM; read-out: IC50 against PKCb; cited from earlier work
[29] = tested on: MAPK1; set-up: method as in PMID 18094329; conditions: inactive or IC50 >30μM; read-out: IC50 against MAPK1; cited from earlier work
[30] = tested on: AKT; set-up: method as in PMID 18094329; conditions: inactive or IC50 >30μM; read-out: IC50 against AKT; cited from earlier work
[31] = tested on: JAK3; set-up: method as in PMID 18094329; conditions: read-out: IC50 against JAK3; cited from earlier work

CCc1cc(O)ccc1-c1ccc2c(-c3nc4ccccc4[nH]3)n[nH]c2c1 [PF1367550, 4-(3-(1H-benzo[d]imidazol-2-yl)-1H-indazol-6-yl)-3-ethylphenol]
IC50 [1]: 0.06 µM
IC50 ([2]; 1mM ATP, read-out: IC50 JAK3 1 mM): 0.014 µM
IC50 ([2]; ATP at the Km, read-out: IC50 JAK3 Km): 0.001 µM
IC50 [3]: 0.692 µM
IC50 [4]: 0.054 µM
IC50 [5]: 0.665 µM
IC50 [6]: 0.227 µM
IC50 [7]: 0.781 µM
IC50 ([8]; 1mM ATP, read-out: IC50 JAK1 1 mM): 0.0004 µM
IC50 ([8]; ATP at the Km, read-out: IC50 JAK1 Km): 0.0008 µM
IC50 ([9]; 1mM ATP, read-out: IC50 JAK2 1 mM): 0.0013 µM
IC50 ([9]; ATP at the Km, read-out: IC50 JAK2 Km): 0.001 µM
IC50 [10]: 0.617 µM

C[C@@H]1CCN(C(=O)N2CCCC2)C[C@@H]1N(C)c1ncnc2[nH]ccc12 [PF956980]
effect against PKA [11]: modest effects
IC50 [12]: > 30 µM
IC50 [13]: > 30 µM
effect on ~30 other kinase pathways [14]: no effect
concentration effective against IL-4-induced cytotoxic resistance [15]: ~ 0.3 μM
IC50 [16]: 0.022 µM
IC50 [17]: > 30 µM
IC50 [18]: > 30 µM
IC50 [19]: > 30 µM
IC50 [20]: > 30 µM
IC50 [21]: > 30 µM
IC50 [22]: > 30 µM
IC50 [23]: > 30 µM
IC50 [24]: > 30 µM
IC50 [25]: > 30 µM
IC50 [26]: > 30 µM
IC50 [27]: > 30 µM
IC50 [28]: > 30 µM
IC50 [29]: > 30 µM
IC50 [30]: > 30 µM
IC50 [31]: ~0.004 µM
